The data set is described as follows: Solubility of each synthesized compound in multiple solvents at room temperature. Format: physicochemical. To be noted: room temperature (about 25° C.); for Solubility in MEK: methyl ethyl ketone; for Solubility in MIBK: methyl isobutyl ketone. As for the experimental part: The solubility of each compound synthesized above was evaluated. Solubility was evaluated based on the following criteria by evaluating the solubility of each compound in multiple solvents (cyclohexanone, toluene, methyl isobutyl ketone (MIBK), or methyl ethyl ketone (MEK)) at room temperature (about 25° C.).
• A: A case where the solubility is 1% by mass or more. • B: A case where the solubility is 0.5 mass % or more and less than 1 mass %. • C: A case where the solubility is 0.2 mass % or more and less than 0.5 mass %. • D: A case where solubility is less than 0.2 mass %.

Turning to `CCCCCCN1c2cc(NC(=O)C(CC)CCCC)c(C3=C([O-])/C(=c4\cc5c(cc4NC(=O)C(CC)CCCC)=[N+](CCCCCC)C(C)C5(C)C)C3=O)cc2C(C)(C)C1C` (centres unmarked) [Synthesis Example 5], the “Solubility in Cyclohexanone” value is “A (A case where the solubility is 1% by mass or more.)”, the “Solubility in MEK” value is listed as “A (A case where the solubility is 1% by mass or more.)”, the “Solubility in MIBK” value is listed as “A (A case where the solubility is 1% by mass or more.)” and the “Solubility in Toluene” value is “A (A case where the solubility is 1% by mass or more.)”.
On to `CC(C)(C)C1=C\C(=C/C=C/C=C/c2cc(-c3ccccc3)[o+]c(C(C)(C)C)c2)C=C(c2ccccc2)O1` [Synthesis Example 17], for which the “Solubility in Cyclohexanone” value is “B (A case where the solubility is 0.5 mass % or more and less than 1 mass %.)”; the “Solubility in MEK” value was “B (A case where the solubility is 0.5 mass % or more and less than 1 mass %.)”; the “Solubility in MIBK” value was “A (A case where the solubility is 1% by mass or more.)”; the “Solubility in Toluene” value is “B (A case where the solubility is 0.5 mass % or more and less than 1 mass %.)”.
With `CCOC(=O)Nc1cc2c(cc1C1=C([O-])/C(=c3\cc4c(cc3NC(=O)OCC)=[N+](CCOC)C(C)C4(C)C)C1=O)C(C)(C)C(C)N2CCOC` (centres unmarked) [Synthesis Example 1], the “Solubility in Cyclohexanone” value is “A (A case where the solubility is 1% by mass or more.)”; the “Solubility in MEK” value is reported as “A (A case where the solubility is 1% by mass or more.)”; the “Solubility in MIBK” value is “A (A case where the solubility is 1% by mass or more.)”; the “Solubility in Toluene” value was “B (A case where the solubility is 0.5 mass % or more and less than 1 mass %.)”.
With `CCCCCCN1c2cc(NC(C)=O)c(C3=C([O-])/C(=c4\cc5c(cc4NC(C)=O)=[N+](CCCCCC)C(C)C5(C)C)C3=O)cc2C(C)(C)C1C` (centres unmarked) [Synthesis Example 4], the “Solubility in Cyclohexanone” value is recorded as “A (A case where the solubility is 1% by mass or more.)”; the “Solubility in MEK” value is “A (A case where the solubility is 1% by mass or more.)”; the “Solubility in MIBK” value is given as “A (A case where the solubility is 1% by mass or more.)”; the “Solubility in Toluene” value was “B (A case where the solubility is 0.5 mass % or more and less than 1 mass %.)”.
As for `Cc1ccc2c(c1)/C(=C/C=C/C=C/c1cc(C(C)(C)C)[o+]c3ccc(C)cc13)C=C(C(C)(C)C)O2` [Synthesis Example 14], the “Solubility in Cyclohexanone” value is listed as “A (A case where the solubility is 1% by mass or more.)”, the “Solubility in MEK” value is “A (A case where the solubility is 1% by mass or more.)”, the “Solubility in MIBK” value is “A (A case where the solubility is 1% by mass or more.)” and the “Solubility in Toluene” value was “A (A case where the solubility is 1% by mass or more.)”.
In the case of `CC(C)(C)C1=C\C(=C/C=C(Cl)/C=C/c2cc(C(C)(C)C)[o+]c3ccccc23)c2ccccc2O1` [Synthesis Example 15], the “Solubility in Cyclohexanone” value is listed as “A (A case where the solubility is 1% by mass or more.)”; the “Solubility in MEK” value is listed as “A (A case where the solubility is 1% by mass or more.)”; the “Solubility in MIBK” value is listed as “A (A case where the solubility is 1% by mass or more.)”; the “Solubility in Toluene” value is “B (A case where the solubility is 0.5 mass % or more and less than 1 mass %.)”.
`C/C(C1=Nc2ccc3ccccc3c2C1(C)C)=C1/C(=O)C(C(/C)=C2/Nc3ccc4ccccc4c3C2(C)C)=C1O` [Synthesis Example 12]: the “Solubility in Cyclohexanone” value is “B (A case where the solubility is 0.5 mass % or more and less than 1 mass %.)”; the “Solubility in MEK” value is “C (A case where the solubility is 0.2 mass % or more and less than 0.5 mass %.)”; the “Solubility in MIBK” value was “B (A case where the solubility is 0.5 mass % or more and less than 1 mass %.)”; the “Solubility in Toluene” value is “C (A case where the solubility is 0.2 mass % or more and less than 0.5 mass %.)”.
As to `CCCCC(CC)COC(=O)Nc1cc2c(cc1C1=C([O-])/C(=c3\cc4c(cc3NC(=O)OCC(CC)CCCC)=[N+](C)C(C)C4(C)C)C1=O)C(C)(C)C(C)N2C` (centres unmarked) [Synthesis Example 3], the “Solubility in Cyclohexanone” value was “A (A case where the solubility is 1% by mass or more.)”, the “Solubility in MEK” value was “A (A case where the solubility is 1% by mass or more.)”, the “Solubility in MIBK” value is recorded as “A (A case where the solubility is 1% by mass or more.)” and the “Solubility in Toluene” value is “A (A case where the solubility is 1% by mass or more.)”.
Turning to `CC(C)(C)C1=C\C(=C/C=C(Cl)/C=C/c2cc(-c3ccc(C(C)(C)C)cc3)[o+]c(C(C)(C)C)c2)C=C(c2ccc(C(C)(C)C)cc2)O1` [Synthesis Example 18], the “Solubility in Cyclohexanone” value is “A (A case where the solubility is 1% by mass or more.)”; the “Solubility in MEK” value is on record as “A (A case where the solubility is 1% by mass or more.)”; the “Solubility in MIBK” value is reported as “A (A case where the solubility is 1% by mass or more.)”; the “Solubility in Toluene” value was “B (A case where the solubility is 0.5 mass % or more and less than 1 mass %.)”.
Regarding `CC(=O)Nc1cc2c(cc1C1=C([O-])/C(=c3\cc4c(cc3NC(C)=O)=[N+](C)C(C)C4(C)C)C1=O)C(C)(C)C(C)N2C` (centres unmarked) [Synthesis Example 7], the “Solubility in Cyclohexanone” value is on record as “A (A case where the solubility is 1% by mass or more.)”; the “Solubility in MEK” value is “B (A case where the solubility is 0.5 mass % or more and less than 1 mass %.)”; the “Solubility in MIBK” value was “A (A case where the solubility is 1% by mass or more.)”; the “Solubility in Toluene” value was “B (A case where the solubility is 0.5 mass % or more and less than 1 mass %.)”.
In the case of `CC(C)(C)C1=C\C(=C/C=C/C=C/c2cc(C(C)(C)C)[o+]c3ccccc23)c2ccccc2O1` [Synthesis Example 13], the “Solubility in Cyclohexanone” value is on record as “A (A case where the solubility is 1% by mass or more.)”; the “Solubility in MEK” value is listed as “A (A case where the solubility is 1% by mass or more.)”; the “Solubility in MIBK” value is given as “A (A case where the solubility is 1% by mass or more.)”; the “Solubility in Toluene” value is “B (A case where the solubility is 0.5 mass % or more and less than 1 mass %.)”.
With `COc1ccc2c(c1)/C(=C/C=C(Cl)/C=C/c1cc(C(C)(C)C)[o+]c3ccc(OC)cc13)C=C(C(C)(C)C)O2` [Synthesis Example 16], the “Solubility in Cyclohexanone” value is “A (A case where the solubility is 1% by mass or more.)”, the “Solubility in MEK” value is on record as “A (A case where the solubility is 1% by mass or more.)”, the “Solubility in MIBK” value is “A (A case where the solubility is 1% by mass or more.)” and the “Solubility in Toluene” value is on record as “A (A case where the solubility is 1% by mass or more.)”.
As to `CCCCC(CC)COC(=O)Nc1cc2c(cc1C1=C([O-])/C(=c3\cc4c(cc3NC(=O)OCC(CC)CCCC)=[N+](CCOC)C(C)C4(C)C)C1=O)C(C)(C)C(C)N2CCOC` (centres unmarked) [Synthesis Example 2], the “Solubility in Cyclohexanone” value was “A (A case where the solubility is 1% by mass or more.)”; the “Solubility in MEK” value is on record as “A (A case where the solubility is 1% by mass or more.)”; the “Solubility in MIBK” value is reported as “A (A case where the solubility is 1% by mass or more.)”; the “Solubility in Toluene” value was “B (A case where the solubility is 0.5 mass % or more and less than 1 mass %.)”.
Consider `CCCCCCCCS(=O)(=O)Nc1cc2c(cc1C1=C([O-])/C(=c3\cc4c(cc3NS(=O)(=O)CCCCCCCC)=[N+](CCCCCC)C(C)C4(C)C)C1=O)C(C)(C)C(C)N2CCCCCC` (centres unmarked) [Synthesis Example 6], for which the “Solubility in Cyclohexanone” value was “A (A case where the solubility is 1% by mass or more.)”, the “Solubility in MEK” value is “A (A case where the solubility is 1% by mass or more.)”, the “Solubility in MIBK” value is listed as “A (A case where the solubility is 1% by mass or more.)” and the “Solubility in Toluene” value is given as “A (A case where the solubility is 1% by mass or more.)”.
